We go through three molecules from patent US20090325208A1 (priority 2006, published 2009).

The target of data set [1] is T1, 3-hydroxy-3-methylglutaryl-CoA synthase (HMGS) (Homo sapiens, UniProt Q01581).
T1 sequence (Q01581 1-520): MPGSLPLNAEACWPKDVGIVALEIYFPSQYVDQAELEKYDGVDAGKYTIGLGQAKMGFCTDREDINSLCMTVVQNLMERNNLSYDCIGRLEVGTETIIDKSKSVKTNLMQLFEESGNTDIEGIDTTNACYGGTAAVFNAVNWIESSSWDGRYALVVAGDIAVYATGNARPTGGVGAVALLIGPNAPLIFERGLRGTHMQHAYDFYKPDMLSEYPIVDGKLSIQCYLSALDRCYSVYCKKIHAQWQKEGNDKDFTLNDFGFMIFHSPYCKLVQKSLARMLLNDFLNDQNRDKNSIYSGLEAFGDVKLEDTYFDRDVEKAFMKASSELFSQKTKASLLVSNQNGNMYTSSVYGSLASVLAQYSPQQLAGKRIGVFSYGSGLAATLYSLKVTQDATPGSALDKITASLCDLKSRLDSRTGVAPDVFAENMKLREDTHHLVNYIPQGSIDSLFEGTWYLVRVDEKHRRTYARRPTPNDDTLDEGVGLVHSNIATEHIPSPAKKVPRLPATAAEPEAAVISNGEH
The following applies: cited from earlier work.

Data set [2] has as its target purified 20S proteasome (Homo sapiens, UniProt P28074). The conditions noted are these: read-out: IC50 against purified 20S proteasome; cited from earlier work.
Data set [3] concerns animal tumor models. The following applies: cited from earlier work.
Data set [4] has as its system assembled 20S proteasome from recombinant subunits containing the SalJ β-subunit. Briefly: 20S Proteasome Activity Assay (Chemicon), cleavage of LLVY-AMC. The following applies: assembled recombinant 20S proteasome with SalJ β-subunit (Ala→Val at residue 49); FIG. 19. The format is biochemical, S. tropica. An excerpt: (§1) Inhibition of the 20S proteasome will also be measured 20S for all new salinosporamides. The CHEMICON Proteasome Activity Assay Kit by Chemicon International provides a system that is designed to detect the chymotrypsin-like activity of the yeast 20S proteasome through the release of the fluorophore AMC (7-amino-4-methylcoumarin) from the specific substrate Suc-LLVY-AMC after cleavage. AMC can be detected using a fluorometer with a 380 nm excitation and a 460 nm emission filter. For inhibitor screening, the test sample is added to the assay plate and fluorescence read, looking for a reduction in proteasome activity.
(§2) The ubiquitin-proteasome pathway involves the 26S proteasome, which is formed by the barrel-shaped 20S proteasome (about 700 kDa) and two 19S (about 700 kDa) regulatory complexes on each end of the 20S proteasome. […] Cleavage of the free flourophore, 7-Amino-4-methylcoumarin (AMC) from LLVY can be detected and quantified using a 380/460 nm filter set in a flourmeter. […]
(§3) The present invention describes the biosynthesis of SalJ (FIG. 16). […] Yet, the assembled-recombinant 20S proteasome with the SalJ β-subunit (far right two bars) confers resistance to at least SalA as there was no substantial measurable difference in the level of fluorescence of the free AMC (FIG. 19) in the presence or absence of SalA. […]

Data set [5] concerns multiple myeloma cells that have become refractory to bortezomib therapy. The conditions noted are these: cited from earlier work.
Data set [6] deals with colon, pancreatic, and lung cancers. The conditions noted are these: cited from earlier work.
The target of data set [7] is T2, yeast 20S proteasome (Saccharomyces cerevisiae, UniProt P30656).
T2 construct: minus the N-terminal propeptide that is cleaved off autocatalytically during assembly; purchased Chemicon International
Briefly: 20S Proteasome Activity Assay (Chemicon), cleavage of LLVY-AMC. The data set is classed as biochemical. The conditions noted are these: preliminary experiments, FIG. 19.
Description: as §1, §2, §3

For data set [8], the system named is S. tropica 20S proteasome. The data set is described as above. The format is biochemical. The conditions noted are these: preliminary experiments, FIG. 19.
Description: as §1, §2, §3

Take `CC(=C\C(=O)O)/C=C(\C)C[C@H](C)CCCC[C@H]1OC(=O)[C@@H]1CO` [F-244]: the IC50 in data set [1] was 35 nM.

Turning to `CC(C)[C@H](O)[C@@]12NC(=O)[C@H](C)[C@@H]1OC2=O` [omuralide, clasto-lactacystin-β-lactone, reference compound], the IC50 in data set [2] is 49 nM.

`C[C@@]12OC(=O)[C@]1([C@@H](O)[C@@H]1C=CCCC1)NC(=O)[C@@H]2CCCl` [salinosporamide A]: in data set [3], the oral activity result was “orally active”, the survival entry is given as “prolongs survival” and the tolerability result was “well tolerated”. Further, in data set [4], the “inhibition of 20S proteasome (fluorescence of free AMC)” value is “not inhibited”. The induction of apoptosis result in data set [5] was “induces apoptosis”. The “efficacy in animal models” value in data set [6] is “efficacious”. For the same molecule, the “inhibition of 20S proteasome (fluorescence of free AMC)” value in data set [7] is on record as “inhibited”. For the same molecule, the “inhibition of 20S proteasome (fluorescence of free AMC)” value in data set [8] is “inhibited”.

The term IC50 denotes the midpoint of a concentration-inhibition curve.
